Measured values as given in patent EP0522504A1, “2-(2-substituted pyrrolidinylthio)-carbapenem derivatives” (Banyu Pharmaceutical Co., Ltd., priority 1991, dated 1993).
Converted amounts (≈) assume the structure as drawn. Like-named read-outs stand apart in the source and are kept apart here.

Columns and labels:
bacteria [1] = assay: in vitro antibacterial activities, agar plate dilution method (MIC); type: cell-based; settings: Mueller Hinton agar, inoculum 10⁶ CFU/mℓ, 37°C for 16 hours
Method: One platinum loopful of each test microorganism incubated overnight in Mueller Hinton broth, was inoculated to Mueller Hinton agar (inoculum size: 10⁶ CFU/mℓ). Such culture media contained antibacterial agents in various concentrations. After incubation at 37°C for 16 hours, the minimum inhibitory concentrations (MIC: µg/mℓ) were measured.

bacteria [2] = assay: disc diffusion test (method of Bauer et al.), antibacterial potency relative to thienamycin; type: cell-based; settings: ratio to thienamycin (= 1.0) of geometrical average MIC, larger value = higher activity
Method: The antibacterial activities of the compounds of the present invention described in the Examples, as representative examples of the compound of the present invention, were measured by a disc diffusion test by the method of Bauer et al. (Amer. J. Clin. Pathol., vol. 45, p. 493 (1966)). Thienamycin or imipenem was used as the internal standard.
MIC of each test compound was calculated from the diameter of the inhibition ring formed by the disc containing the test compound by using the calculation formula reported by Humphrey and Lightbown (J. Gen. Microbiol., vol. 7, p. 129 (1952)). For each microorganism, a geometrical average of MIC was obtained, and the activity ratio to thienamycin was calculated.
The antibacterial activities are represented by the ratio to thienamycin (= 1.0), whereby the larger the numerical value, the higher the activities.

DHP-I = target: T1, DHP-I (Homo sapiens, UniProt P16444); assay: DHP-I susceptibility (method by Kropp et al.), ratio to imipenem; type: in vitro ADME
T1 sequence (P16444 17-385): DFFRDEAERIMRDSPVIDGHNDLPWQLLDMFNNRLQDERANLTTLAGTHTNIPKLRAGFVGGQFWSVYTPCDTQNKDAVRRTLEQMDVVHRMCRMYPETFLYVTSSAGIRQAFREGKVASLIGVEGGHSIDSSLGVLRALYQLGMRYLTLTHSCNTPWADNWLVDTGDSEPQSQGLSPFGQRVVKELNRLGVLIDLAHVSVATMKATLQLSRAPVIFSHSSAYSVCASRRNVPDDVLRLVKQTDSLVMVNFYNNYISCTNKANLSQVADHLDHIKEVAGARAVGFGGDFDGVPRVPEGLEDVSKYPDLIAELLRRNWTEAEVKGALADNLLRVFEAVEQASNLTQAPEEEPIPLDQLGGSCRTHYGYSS
Text: The DHP-I susceptibility was quantitatively analyzed by the method by Kropp et al., Antimicrob. Agents Chemother., vol. 22, p.

[3] = Pseudomonas aeruginosa, 16 h, P. aeruginosa MB 5002, read-out: Minimum Inhibitory Concentration(MIC)
[4] = Pseudomonas aeruginosa, 16 h, P. aeruginosa MB 5178, read-out: Minimum Inhibitory Concentration(MIC)
[5] = Staphylococcus aureus, 209P / NIHJJC1, 16 h, S. aureus 209P NIHJ JC1, read-out: Minimum Inhibitory Concentration(MIC)
[6] = Staphylococcus aureus, 16 h, S. aureus BB 5939 (β-lactamase producing microorganism), read-out: Minimum Inhibitory Concentration(MIC)
[7] = Staphylococcus aureus, 16 h, S. aureus MB 4970, read-out: Minimum Inhibitory Concentration(MIC)
[8] = ratio to imipenem (=1.0), smaller value = higher stability

Row | Structure (SMILES) | MIC (bacteria [1]; [3]) [µg/mL] | MIC (bacteria [1]; [4]) [µg/mL] | MIC (bacteria [1]; [5]) [µg/mL] | MIC (bacteria [1]; [6]) [µg/mL] | MIC (bacteria [1]; [7]) [µg/mL] | Relative antibacterial potency to thienamycin (bacteria [2]; Meth-R S. aureus) | Relative antibacterial potency to thienamycin (bacteria [2]; THM-R P.aeruginosa) | DHP-I susceptibility (DHP-I) | DHP-I susceptibility (DHP-I; [8]) | MIC (bacteria [1]; Pseudomonas aeruginosa, 16 h, read-out: Minimum Inhibitory Concentration(MIC), P. aeruginosa MB 5002) [µg/mL] | MIC (bacteria [1]; Pseudomonas aeruginosa, 16 h, read-out: Minimum Inhibitory Concentration(MIC), P. aeruginosa MB 5178) [µg/mL] | MIC (bacteria [1]; Staphylococcus aureus, 209P / NIHJJC1, 16 h, read-out: Minimum Inhibitory Concentration(MIC), S. aureus 209P NIHJ JC1) [µg/mL] | MIC (bacteria [1]; Staphylococcus aureus, 16 h, read-out: Minimum Inhibitory Concentration(MIC), S. aureus BB 5939 (β-lactamase producing microorganism)) [µg/mL] | MIC (bacteria [1]; Staphylococcus aureus, 16 h, read-out: Minimum Inhibitory Concentration(MIC), S. aureus MB 4970) [µg/mL] | DHP-I susceptibility, ratio to imipenem (DHP-I; the smaller the numerical value, the higher the stability)
1 | C[C@@H](O)[C@H]1C(=O)N2C(C(=O)O)=C(S[C@@H]3CN[C@H](/C=C/C(N)=O)C3)[C@H](C)[C@H]12 [BO-2171, (1R,5S,6S)-2-[(2S,4S)-2-[(E)-2-(aminocarbonyl)vinyl]pyrrolidin-4-ylthio]-6-[(R)-1-hydroxyethyl]-1-methyl-1-carbapen-2-em-3-carboxylic acid, reference compound] | 6.25 (≈ 16.4 µM) | 12.5 (≈ 32.8 µM) | 0.025 (≈ 0.0655 µM) | 6.25 (≈ 16.4 µM) | 0.025 (≈ 0.0655 µM) | 7.68 | 3.28 | 0.3 |  |  |  |  |  |  | 
2 | C[C@@H](O)[C@H]1C(=O)N2C(C(=O)O)=C(S[C@@H]3CN[C@H](/C=C\CN)C3)[C@H](C)[C@H]12 [Example 2, (1R,5S,6S)-2-[(2S,4S)-2-[(Z)-3-amino-1-propenyl]pyrrolidin-4-ylthio]-6-[(R)-1-hydroxyethyl]-1-methyl-1-carbapen-2-em-3-carboxylic acid] | 0.78 (≈ 2.12 µM) | 1.56 (≈ 4.25 µM) | < 0.006 | 1.56 (≈ 4.25 µM) | 0.012 (≈ 0.0327 µM) | 12.9 | 15.2 | <0.05 |  |  |  |  |  |  | 
3 | C/C(=C/[C@@H]1C[C@H](SC2=C(C(=O)O)N3C(=O)[C@H]([C@@H](C)O)[C@H]3[C@H]2C)CN1)CN.Cl [Example 7, (1R,5S,6S)-2-[(2S,4S)-2-[(Z)-3-amino-2-methyl-1-propenyl]pyrrolidin-4-ylthio]-6-[(R)-1-hydroxyethyl]-1-methyl-1-carbapen-2-em-3-carboxylic acid hydrochloride] | 0.78 | 1.56 | < 0.006 | 1.56 | < 0.006 | 13.5 | 31.3 |  | <0.05 |  |  |  |  |  | 
4 | CNC/C(C)=C\[C@@H]1C[C@H](SC2=C(C(=O)O)N3C(=O)[C@H]([C@@H](C)O)[C@H]3[C@H]2C)CN1.Cl [Example 9, (1R,5S,6S)-6-[(R)-1-hydroxyethyl]-2-[(2S,4S)-2-[(Z)-3-(N-methylamino)-2-methyl-1-propenyl]pyrrolidin-4-ylthio]-1-methyl-1-carbapen-2-em-3-carboxylic acid hydrochloride] | 0.78 | 3.13 | < 0.006 | 1.56 | < 0.006 | 19.7 | 13.4 |  | 0.10 |  |  |  |  |  | 
5 | C[C@@H](O)[C@H]1C(=O)N2C(C(=O)O)=C(SCCN=CN)C[C@H]12 [imipenem, (5R,6S,8R)-3-[[2-(formimidoylamino)ethyl]thio]-6-(1-hydroxyethyl)-7-oxo-1-azabicyclo[3.2.0]hept-2-en-2-carboxylic acid monohydrate, reference compound] |  |  |  |  |  | 2.57 | 2.0 |  | 1.0 | 1.56 | 25 | < 0.006 | 6.25 | 0.012 | 1.0
